In patent US12570645B2, “Uses of p53 x-ray co-crystal structures” (PMV Pharmaceuticals, Inc., priority 2020, dated 2026):

Molecular target: T1, p53 Y220C (Homo sapiens, UniProt P04637, P309S/R273H/Y220C)
T1 construct: made in house; host or cells: E. coli
Experiment: HTRF / TR-FRET in vitro DNA binding activity assay (SC150)
Type: biochemical
Details: concentration required to increase DNA binding activity of p53 Y220C by 50%
Description: The ability of a compound of the invention to stabilize p53 Y220C and increase the DNA binding activity of p53 Y220C was measured by a homogeneous time-resolved fluorescence (HTRF) assay. Recombinant His-tagged p53 Y220C used in the HTRF assay was expressed in the bacterium E. coli. The recombinant protein was a truncation mutant containing only amino acids 94-312 of p53, which encompassed the DNA binding domain (DBD) of p53 (SEQ ID NO.: 1). The His-tagged p53 Y220C was tested for DNA binding ability with a consensus sequence of DNA (DNA duplex with a sequence of 5′-[…]-3′; SEQ ID NO.: 2). SEQ ID NO.: 2 was then conjugated with a biotin label and used in the activity assay.
The binding of the recombinant His-tagged p53 Y220C protein and the biotin-labeled consensus DNA was measured using fluorescence resonance energy transfer (FRET). For the FRET assay, the binding between the p53 mutant and the DNA sequence was measured by detecting the fluorescence of the interaction between an anti-His antibody conjugated to allophycocyanin (APC) and streptavidin conjugated to europium to detect the biotin-labeled DNA.
The test compounds were prepared as 4.5 mM stock solutions in dimethyl sulfoxide (DMSO). The compounds of the disclosure were used to test the stabilization of p53 Y220C and increase in DNA binding activity of p53 Y220C. The stock solutions were then serially diluted 3-fold in DMSO, and 1.2 μL of the diluted solutions was added to each well of a 384-well polypropylene black plate. 30 μL of a 181 nM solution of the recombinant His-tagged p53 Y220C protein and 12.1 nM of APC conjugated anti-His tag antibody in ice-cold Assay Buffer 1 (50 mM Tris-HCl, pH 7.4; 75 mM KCl; 0.75 mM DTT; and 0.2 mg/mL bovine serum albumin (BSA) was added to each well containing the test compounds.
As a background control, 30 μL of Assay Buffer 1 containing 12.1 nM of APC anti-His antibody was also added into a second set of serially-diluted compound plates. The test and control samples were spun at 1200 rpm for 1 minute and incubated at room temperature for 15 minutes. The samples were then further incubated at either 27° C. or 29° C. for 60 min. Five microliters of 311 nM biotin labeled consensus DNA (SEQ ID NO.: 2) and 13.03 nM europium-conjugated streptavidin in Assay Buffer 2 (50 mM Tris-HCl, pH 7.4; 75 mM KCl; and 0.2 mg/mL BSA) were added to each well for both the test and control plates. The plates were spun at 1200 rpm for 1 minute and incubated at room temperature for 20 minutes. The assay signals were monitored by reading excitation at 340 nm, and emission fluorescence at 615 nm and 665 nm on a plate reader.
Normalized time-resolved fluorescence resonance energy transfer (TR-FRET) assay signal (Rn) was calculated by the formula: Rn=[(A−Ba−CD)/(D−Bd)](Dc−Bd) where A was the fluorescence intensity of the sample at 665 nm; D was the fluorescence intensity of the sample at 615 nm; Ba and Bd were plate background readings at 665 nm and 615 nm, respectively; and Dc was the fluorescence intensity of 1.8 nM Eu-SA in the assay buffer at 615 nm.
The cross talk factor (C) was determined by the following formula: C═(Ac−Ba)/(DC−Bd) where Ac was the fluorescence intensity of 1.8 nM Eu-labeled anti-FLAG antibody in the assay buffer at 665 nm.
The percentage of activation of protein DNA binding in the presence of a compound of the invention compared to the absence of the compound was denoted by a SC150 value, which indicated the concentration of the compound required to increase the DNA binding activity by 50%. The SC150 values were calculated using either Prism™ or ActivityBase™.

| SC150 (μM) (TABLE 10) | SMILES | further results |
| --- | --- | --- |
| ′ (′ = 0 μM ≤ SC150 < 0.05 μM) | COc1cc(S(C)(=O)=O)ccc1NCC#Cc1cc2c(N[C@@H]3CCN(C)C[C@@H]3F)cccc2n1CC(F)(F)F [Compound 13, N-[(3S,4R)-3-fluoro-1-methylpiperidin-4-yl]-2-{3-[(4-methanesulfonyl-2-methoxyphenyl)amino]prop-1-yn-1-yl}-1-(2,2,2-trifluoroethyl)-1H-indol-4-amine] |  |
| ′′′ (′′′ = 0.1 μM ≤ SC150 < 0.2 μM) | COc1cc(S(C)(=O)=O)ccc1NCC#Cc1cc2c(N(C)C)cccc2n1CC(F)(F)F [Molecule 702] |  |
| ′ (′ = 0 μM ≤ SC150 < 0.05 μM) | COc1cc(S(=O)(=O)Nc2ccon2)ccc1NCC#Cc1cc2c(NC3CCC(N(C)C)CC3)cccc2n1CC(F)(F)F (stereo not shown) [Molecule 1188] |  |
| ′ (′ = 0 μM ≤ SC150 < 0.05 μM) | CN1CCC(Nc2cccc3c2cc(C#CCNc2ccc(S(C)(=O)=O)cc2O)n3CC(F)(F)F)CC1 [Molecule 1623] |  |
| ′ (′ = 0 μM ≤ SC150 < 0.05 μM) | COc1cc(C(N)=O)ccc1NCC#Cc1cc2c(N[C@H]3CCN(C)C[C@H]3F)cccc2n1CC(F)(F)F [Molecule 1939] |  |

More lines, now with the values behind:

| SMILES | SC150 (μM) (TABLE 10) | further results |
| --- | --- | --- |
| COCC(O)CN1CCC(Nc2cccc3c2cc(C#CCNc2ccc(S(C)(=O)=O)cc2OC)n3CC(F)(F)F)CC1 (stereo not shown) [Compound 7, 1-{4-[(2-{3-[(4-methanesulfonyl-2-methoxyphenyl)amino]prop-1-yn-1-yl}-1-(2,2,2-trifluoroethyl)-1H-indol-4-yl)amino]piperidin-1-yl}-3-methoxypropan-2-ol] | ′ (′ = 0 μM ≤ SC150 < 0.05 μM) |  |
| COc1cc(S(C)(=O)=O)ccc1NCC#Cc1cc2c(N[C@H]3CC[C@H](N4CC5CC(C4)O5)CC3)cccc2n1CC(F)(F)F [Compound 10, 2-{3-[(4-methanesulfonyl-2-methoxyphenyl)amino]prop-1-yn-1-yl}-N-[(1r,4r)-4-{6-oxa-3-azabicyclo[3.1.1]heptan-3-yl}cyclohexyl]-1-(2,2,2-trifluoroethyl)-1H-indol-4-amine] | ′ (′ = 0 μM ≤ SC150 < 0.05 μM) |  |
| CNC(=O)c1ccc(NCC#Cc2cc3c(N[C@@H]4CCN(C)C[C@@H]4F)cccc3n2CC(F)(F)F)c(OC)c1 [Compound 14, 4-{[3-(4-{[(3S,4R)-3-fluoro-1-methylpiperidin-4-yl]amino}-1-(2,2,2-trifluoroethyl)-1H-indol-2-yl)prop-2-yn-1-yl]amino}-3-methoxy-N-methylbenzamide] | ′ (′ = 0 μM ≤ SC150 < 0.05 μM) |  |
| COc1cc(S(C)(=O)=O)ccc1NCC#Cc1cc2c(NC(=O)NC3CCN(CCO)CC3)cccc2n1CC(F)(F)F [Molecule 1155] | ′′′′ (′′′′ = 0.2 μM ≤ SC150 < 1 μM) |  |
| CNC(=O)c1ccc(NCC#Cc2cc3c(NC4CCC(N5CC(S(C)(=O)=O)C5)CC4)cccc3n2CC(F)(F)F)c(OC)c1 (stereo not shown) [Molecule 1330] | ′ (′ = 0 μM ≤ SC150 < 0.05 μM) |  |
| COc1cc(S(N)(=O)=O)ccc1NCC#Cc1cc2c(NC3CCN(C[C@@H](O)CO)CC3)cccc2n1CC(F)(F)F [Molecule 1687] | ′ (′ = 0 μM ≤ SC150 < 0.05 μM) |  |
| CNC(=O)c1ccc(NCC#Cc2cc3c(N[C@H]4CCN(C)C[C@H]4F)cccc3n2CC(F)(F)F)c(OC)c1 [Molecule 1921] | ′ (′ = 0 μM ≤ SC150 < 0.05 μM) |  |
| COc1cc(C(N)=O)ccc1NCC#Cc1cc2c(N[C@@H]3CCN(C)C[C@@H]3F)cccc2n1CC(F)(F)F [Molecule 1938] | ′ (′ = 0 μM ≤ SC150 < 0.05 μM) |  |
| COc1cc(C(N)=O)ccc1NCC#Cc1cc2c(NC3C[C@@H](C)O[C@@H](C)C3)cccc2n1CC(F)(F)F (stereo partly shown) [Molecule 2168] | ′′′ (′′′ = 0.1 μM ≤ SC150 < 0.2 μM) |  |
| N#Cc1cccc(-c2cc3c(NC4CCS(=O)(=O)CC4)cccc3n2CC(F)(F)F)c1 [Molecule 2204] |  | SC150 (μM) (TABLE 12): ** (** = 0.1 μM ≤ SC150 < 0.5 μM) |
| Cc1ccc(-c2cc3c(NC4CCS(=O)(=O)CC4)cccc3n2CC(F)(F)F)c(F)c1 [Molecule 2205] |  | SC150 (μM) (TABLE 12): ** (** = 0.1 μM ≤ SC150 < 0.5 μM) |
| O=S1(=O)CCC(Nc2cccc3c2cc(-c2cccc(Cl)c2)n3CC(F)(F)F)CC1 [Molecule 2206] |  | SC150 (μM) (TABLE 12): * (* = 0 μM ≤ SC150 < 0.1 μM) |
| CN1CC[C@H](Nc2cccc3c2cc(-c2ccc(CNC(=O)c4ccccc4)cc2)n3CC(F)(F)F)[C@H](F)C1 [Molecule 2239] |  | SC150 (μM) (TABLE 11): + (+ = 0 μM ≤ SC150 < 2 μM) |
| CN1CC[C@H](Nc2cccc3c2cc(-c2ccc(CNC(=O)C4CC4)cc2)n3CC(F)(F)F)[C@H](F)C1 [Molecule 2240] |  | SC150 (μM) (TABLE 11): + (+ = 0 μM ≤ SC150 < 2 μM) |
